IC50 data for 3 compounds are collected here from ChEMBL document CHEMBL1150842, “Two new fatty diterpenoids from Salvia miltiorrhiza” (J Nat Prod, 2001).

Assay type in all cases: functional, cell-based
What all share (details): Oryctolagus cuniculus

A short description of assay [1]: Antiplatelet activity against washed rabbit platelet assessed as inhibition of arachidonic acid-induced platelet aggregation preincubated for 3 mins before arachidonic acid challenge.
Assay [2] can be described thus: Antiplatelet activity against washed rabbit platelet assessed as inhibition of thrombin-induced platelet aggregation preincubated for 3 mins before thrombin challenge.
Assay [3] can be described thus: Antiplatelet activity against washed rabbit platelet assessed as inhibition of collagen-induced platelet aggregation preincubated for 3 mins before collagen challenge.

Where only a bound is given, the exact number is not on record here.

As to `CCCCCCCC/C=C\CCCCCCCC(=O)OCC(C)C1=C(O)C(=O)c2c(ccc3c2CCCC3(C)C)C1=O` (configuration not stated), the IC50 was 5.1 µM in assay [1], over 100 µM in assay [2] and 50.4 µM in assay [3].

Regarding `CCCCCCCC/C=C\CCCCCCCC(=O)OCC(C)C1=C(O)C(=O)c2c(ccc3c(C)cccc23)C1=O` (configuration not stated) [16-O-OLEOYL DANSHENXINKUN A], the values for the IC50 in assay [1], in assay [2] and in assay [3] were 25.5 µM, over 100 µM and 60.5 µM, respectively.

Turning to `CC(=O)Oc1ccccc1C(=O)O` [ASPIRIN], in assay [1], the IC50 worked out at 27 µM.

One may read the IC50 as the concentration at which inhibition is half-maximal.
